pIC50: −log10 of the molar value. Read-outs that look alike come from different tables or passages of the source.
Tests used:
[1] = test system: SKBR3 (PI3Kα wild type) cells; experiment: CellTiter-Glo 2.0 luminescent cell viability assay, 72 hours, SKBR3 cells; type: cell-based; conditions: Homo sapiens, SK-BR-3, 72 h, SKBR3 (PI3Kα wild type) cells, CellTiter-Glo, approximately 72 hours; read-out: SKBR3 (WT) Viability IC50
In short: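 Viability measured via CTG luminescence following roughly 72 hours of compound exposure at 37° C. Dosing used a 10 um starting concentration diluted 1:4 over 10 points; percent-of-vehicle data fitted with a variable-slope four-parameter model for IC50.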

[2] = test system: T47D (PI3Kα H1047R mutant) cells; experiment: CellTiter-Glo 2.0 luminescent cell viability assay, 72 hours, T47D cells; type: cell-based; conditions: T47D (PI3Kα H1047R mutant) cells, CellTiter-Glo, approximately 72 hours, read-out: T47D (H1047R mutant) Viability IC50
In short: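 Viability was measured by CellTiter-Glo 2.0 luminescence after approximately 72 h of compound exposure at 37° C. Plating was 1000 cells per well the day before dosing, with ten 1:4 dilutions from a 10 µM top concentration. Values as percent of vehicle were fitted by variable-slope log(inhibitor) regression to give IC50.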

| pIC50 [1] | pIC50 ([2]; Homo sapiens, T47D, 72 h) | pIC50 [2] | SMILES |
| --- | --- | --- | --- |
| < 5.00 | 6.06 | – | Cc1cc([C@H](C)Nc2ccccc2C(=O)O)c2nc(N3Cc4ccccc4C3)cc(=O)n2c1 [Example 11-406, (S)-2-((1-(2-(isoindolin-2-yl)-7-methyl-4-oxo-4H-pyrido[1,2-a]pyrimidin-9-yl)ethyl)amino)benzoic acid] |
| < 5.00 | 6.88 | – | Cc1cc([C@@H](C)Nc2ccc(Cl)nc2C(=O)O)c2nc(NCC3CC3)c(C#N)c(=O)n2c1 [Example 11-206, (R)-6-chloro-3-((1-(3-cyano-2-((cyclopropylmethyl)amino)-7-methyl-4-oxo-4H-pyrido[1,2-a]pyrimidin-9-yl)ethyl)amino)picolinic acid] |
| < 5.00 | 6.52 | – | Cc1cc([C@@H](C)Nc2ccc(Cl)nc2C(=O)O)c2nc(N3CCCCC3)c(C#N)c(=O)n2c1 [Example 11-331, (R)-6-chloro-3-((1-(3-cyano-7-methyl-4-oxo-2-(piperidin-1-yl)-4H-pyrido[1,2-a]pyrimidin-9-yl)ethyl)amino)picolinic acid] |
| < 5.00 | 6.15 | – | Cc1cc([C@@H](C)Nc2ccc(C(F)(F)F)nc2C(=O)O)c2nc(N3Cc4ccccc4C3)c(C)c(=O)n2c1 [Example 11-354, (R)-3-((1-(2-(isoindolin-2-yl)-3,7-dimethyl-4-oxo-4H-pyrido[1,2-a]pyrimidin-9-yl)ethyl)amino)-6-(trifluoromethyl)picolinic acid] |

Continued, compound first:

| SMILES | pIC50 [1] | pIC50 ([2]; Homo sapiens, T47D, 72 h) | pIC50 [2] |
| --- | --- | --- | --- |
| Cc1cc([C@@H](C)Nc2ccccc2C(=O)O)c2nc(N3CCN(C4COC4)CC3)c(C)c(=O)n2c1 [Example 11-153, (R)-2-((1-(3,7-dimethyl-2-(4-(oxetan-3-yl)piperazin-1-yl)-4-oxo-4H-pyrido[1,2-a]pyrimidin-9-yl)ethyl)amino)benzoic acid] | < 5.00 | 6.06 | – |
| Cc1cc([C@@H](C)Nc2ccccc2C(=O)O)c2nc(N3CCNCC3)c(C#N)c(=O)n2c1 [Example 11-296, (R)-2-((1-(3-cyano-7-methyl-4-oxo-2-(piperazin-1-yl)-4H-pyrido[1,2-a]pyrimidin-9-yl)ethyl)amino)benzoic acid] | < 5.00 | < 5.00 | – |
| CNC(=O)c1ccc(N2CCN(c3nc4c([C@@H](C)Nc5ccccc5C(=O)O)cc(C)cn4c(=O)c3C)CC2)cc1 [Example 11-249, (R)-2-((1-(3,7-dimethyl-2-(4-(4-(methylcarbamoyl)phenyl)piperazin-1-yl)-4-oxo-4H-pyrido[1,2-a]pyrimidin-9-yl)ethyl)amino)benzoic acid] | < 5.00 | 6.93 | – |
| Cc1cc([C@@H](C)Nc2ccccc2C(=O)O)c2nc(N3CCN(c4ccc(C#N)cc4)CC3C)c(C)c(=O)n2c1 (stereo partly drawn) [Example 11-269, 2-(((1R)-1-(2-(4-(4-cyanophenyl)-2-methylpiperazin-1-yl)-3,7-dimethyl-4-oxo-4H-pyrido[1,2-a]pyrimidin-9-yl)ethyl)amino)benzoic acid] | < 5.00 | – | 6.96 |
| Cc1cc(C(C)NC(C)(C)CC(=O)O)c2nc(N3CCCCC3)cc(=O)n2c1 (stereo not shown) [Example 11-387, 3-methyl-3-((1-(7-methyl-4-oxo-2-(piperidin-1-yl)-4H-pyrido[1,2-a]pyrimidin-9-yl)ethyl)amino)butanoic acid] | < 5.00 | < 5.00 | – |
| Cc1cc([C@@H](C)Nc2ccc(Cl)nc2C(=O)O)c2nc(N3CC4C(C3)C4(F)F)c(C#N)c(=O)n2c1 (stereo partly drawn) [Example 11-143, 6-chloro-3-(((1R)-1-(3-cyano-2-(6,6-difluoro-3-azabicyclo[3.1.0]hexan-3-yl)-7-methyl-4-oxo-4H-pyrido[1,2-a]pyrimidin-9-yl)ethyl)amino)picolinic acid] | < 5.00 | 6.10 | – |
| Cc1cc([C@@H](C)Nc2ccccc2C(=O)O)c2nc(N3CC4CC3CC4c3ccccc3)c(C)c(=O)n2c1 (stereo partly drawn) [Example 11-32, 2-(((1R)-1-(3,7-dimethyl-4-oxo-2-(5-phenyl-2-azabicyclo[2.2.1]heptan-2-yl)-4H-pyrido[1,2-a]pyrimidin-9-yl)ethyl)amino)benzoic acid] | < 5.00 | 6.52 | – |

Source: patent publication US20260078120A1, “SUBSTITUTED PYRIDOPYRIMIDINONES” (MIRATI THERAPEUTICS, INC., priority 2022, published 2026)
